Experimental data as given in paper PMC8286840, “Identifying SARS-CoV-2 antiviral compounds by screening for small molecule inhibitors of Nsp3 papain-like protease” (Biochemical Journal, 2021).
Structures can show the parent of a compound that is named as a salt. Where two headings read alike, the source gives them in different places.

Legend:
[1] = target: T1, SARS-CoV-2 PLpro (nsp3 1564–1878) (Severe acute respiratory syndrome coronavirus 2, UniProt P0DTD1); experiment: biochemical; parameters: FRET-quenched peptide (Pro3) cleavage by PLpro, 10 min pre-incubation, slope over 20 min, normalised to no-compound control; details: low concentration screen, read-out: % of control remaining
[2] = target: T1, SARS-CoV-2 PLpro (nsp3 1564–1878); experiment: biochemical; parameters: FRET-quenched peptide (Pro3) cleavage by PLpro, 10 min pre-incubation, slope over 20 min, normalised to no-compound control; details: high concentration screen, read-out: % of control remaining

SMILES: CC#CC(=O)Nc1cc2c(Nc3ccc(F)c(Cl)c3)ncnc2cn1 [EGFR/ErbB-2/ErbB-4 Inhibitor]
- remaining activity at 1.25 µM ([1]; Well no.=2405): 102%
- remaining activity at 3.75 µM ([2]; Well no.=2405): 105%

SMILES: O=c1cc(CN2CCOCC2)occ1OCCCCCSc1ccnc2cc(C(F)(F)F)ccc12 [EHT 1864]
- remaining activity at 1.25 µM ([1]; Well no.=8435): 93.5%
- remaining activity at 3.75 µM ([2]; Well no.=8435): 90.8%

SMILES: CCn1c2ccccc2c2cc(Nc3ccnc(NCCCN4CCOCC4)n3)ccc21 [EHop-016]
- remaining activity at 1.25 µM ([1]; Well no.=6234): 98.3%
- remaining activity at 3.75 µM ([2]; Well no.=6234): 97.9%

SMILES: Cc1[nH]c2ccc(Cl)cc2c1C1=CCNCC1 [EMD386088]
- remaining activity at 1.25 µM ([1]; Well no.=5430): 95.7%
- remaining activity at 3.75 µM ([2]; Well no.=5430): 97.4%

SMILES: Cc1cc(Nc2cc(N3CCN(C)CC3)nc(/C=C/c3ccccc3)n2)n[nH]1 [ENMD-2076 L-(+)-Tartaric acid]
- remaining activity at 1.25 µM ([1]; Well no.=5012): 101%
- remaining activity at 3.75 µM ([2]; Well no.=5012): 89.1%

SMILES: Cc1cc(Nc2cc(N3CCN(C)CC3)nc(/C=C/c3ccccc3)n2)n[nH]1 [ENMD-2076]
- remaining activity at 1.25 µM ([1]; Well no.=5093): 102%
- remaining activity at 3.75 µM ([2]; Well no.=5093): 105%

SMILES: Cc1ccccc1C(=O)c1ccc(Nc2ccc(Br)cc2N)cc1Cl [EO 1428 - (2-Methylphenyl)-[4-[(2-amino-4-bromophenyl)amino]-2-chlorophenyl]methanone]
- remaining activity at 1.25 µM ([1]; Well no.=2634): 87.4%
- remaining activity at 3.75 µM ([2]; Well no.=2634): 88.7%

SMILES: CC(C)[C@H](NC(=O)OCc1ccccc1)C(=O)N[C@@H](CC(=O)O)C(=O)CF [EP1013]
- remaining activity at 1.25 µM ([1]; Well no.=6886): 96.4%
- remaining activity at 3.75 µM ([2]; Well no.=6886): 96.6%

SMILES: Cc1ccc2c(=O)c3ccccc3n(CCCN)c2c1C [ER 27319 maleate - 10-(3-Aminopropyl)-3,4-dimethyl-9(10H)-acridinone maleate]
- remaining activity at 1.25 µM ([1]; Well no.=2536): 98.5%
- remaining activity at 3.75 µM ([2]; Well no.=2536): 99.3%

SMILES: Nc1[nH]nc2nnc(-c3c(-c4ccccc4)nn4ccccc34)cc12 [ERK Inhibitor II, FR180204]
- remaining activity at 1.25 µM ([1]; Well no.=2454): 103%
- remaining activity at 3.75 µM ([2]; Well no.=2454): 103%

SMILES: O=c1[nH][nH]c2nnc(-c3c(-c4ccccc4)nn4ccccc34)cc12 [ERK Inhibitor II, Negative control]
- remaining activity at 1.25 µM ([1]; Well no.=2456): 98.3%
- remaining activity at 3.75 µM ([2]; Well no.=2456): 102%

SMILES: N/C(=N\N=C\c1ccc(-c2cccc([N+](=O)[O-])c2)o1)N[N+](=O)[O-] [ERK Inhibitor III]
- remaining activity at 1.25 µM ([1]; Well no.=2422): 101%
- remaining activity at 3.75 µM ([2]; Well no.=2422): 104%

SMILES: CCN(N=O)c1ccc(O)c(O)c1 [ET-3,4-dephostatin]
- remaining activity at 1.25 µM ([1]; Well no.=598): 100%
- remaining activity at 3.75 µM ([2]; Well no.=598): 102%

SMILES: CCCCCCCCCCCCCCCCCCOCC(COP(=O)([O-])OCC[N+](C)(C)C)OC (stereo not drawn) [ET-18-OCH3]
- remaining activity at 1.25 µM ([1]; Well no.=502): 104%
- remaining activity at 3.75 µM ([2]; Well no.=502): 102%

SMILES: CC(C)(CCCCCC(O)CCCCCC(C)(C)C(=O)O)C(=O)O [ETC-1002]
- remaining activity at 1.25 µM ([1]; Well no.=8628): 101%
- remaining activity at 3.75 µM ([2]; Well no.=8628): 98.8%

SMILES: CC(C)(C#N)c1ccc(N2C(=O)OCc3cnc4ccc(-c5cnc6ccccc6c5)cc4c32)cc1 [ETP-46464]
- remaining activity at 1.25 µM ([1]; Well no.=5557): 101%
- remaining activity at 3.75 µM ([2]; Well no.=5557): 97.9%

SMILES: NC(=O)C1CCCc2c1[nH]c1ccc(Cl)cc21 (stereo not drawn) [EX 527]
- remaining activity at 1.25 µM ([1]; Well no.=5287): 99%
- remaining activity at 3.75 µM ([2]; Well no.=5287): 97.8%

SMILES: CC[C@@H](C)[C@@H](O)[C@H](C)C(=O)[C@H](C)/C=C(\C)C[C@H](C)[C@@H]1OC(=O)[C@H]1CC [Ebelactone B]
- remaining activity at 1.25 µM ([1]; Well no.=3269): 103%
- remaining activity at 3.75 µM ([2]; Well no.=3269): 104%

SMILES: NC(N)=Nc1nc(CSCCN/C=N/S(=O)(=O)c2ccc(Br)cc2)cs1 [Ebrotidine]
- remaining activity at 1.25 µM ([1]; Well no.=7003): 106%
- remaining activity at 3.75 µM ([2]; Well no.=7003): 103%

SMILES: C[C@H]([C@H](O)CCC(C)(C)O)[C@H]1CC[C@@]2(O)C3=CC(=O)[C@@H]4C[C@@H](O)[C@@H](O)C[C@]4(C)[C@H]3CC[C@]12C [Ecdysone]
- remaining activity at 1.25 µM ([1]; Well no.=3643): 104%
- remaining activity at 3.75 µM ([2]; Well no.=3643): 102%

SMILES: COc1cc2c(cc1O)CCN[C@]21CS[C@@H]2c3c(OC(C)=O)c(C)c4c(c3[C@H](COC1=O)N1[C@@H]2[C@H]2c3c(cc(C)c(OC)c3O)C[C@@H]([C@@H]1C#N)N2C)OCO4 [Ecteinascidin 770]
- remaining activity at 1.25 µM ([1]; Well no.=7070): 100%
- remaining activity at 3.75 µM ([2]; Well no.=7070): 97.2%

SMILES: CCCCCCCCCCCCCCCCCCOCC(COP(=O)([O-])OCC[N+](C)(C)C)OC (stereo not drawn) [Edelfosine]
- remaining activity at 1.25 µM ([1]; Well no.=5699): 95.5%
- remaining activity at 3.75 µM ([2]; Well no.=5699): 96.4%

SMILES: CN1CCc2nc(C(=O)N[C@@H]3C[C@@H](C(=O)N(C)C)CC[C@@H]3NC(=O)C(=O)Nc3ccc(Cl)cn3)sc2C1 [Edoxaban]
- remaining activity at 1.25 µM ([1]; Well no.=8572): 99.4%
- remaining activity at 3.75 µM ([2]; Well no.=8572): 97.7%

SMILES: CC[N+](C)(C)c1cccc(O)c1 [Edrophonium chloride]
- remaining activity at 1.25 µM ([1]; Well no.=555): 99.7%
- remaining activity at 3.75 µM ([2]; Well no.=555): 100%

SMILES: CCC1(C2=NCCN2)Cc2ccccc2O1 (stereo not drawn) [Efaroxan hydrochloride]
- remaining activity at 1.25 µM ([1]; Well no.=603): 97.3%
- remaining activity at 3.75 µM ([2]; Well no.=603): 96.2%

SMILES: O=C1Nc2ccc(Cl)cc2[C@@](C#CC2CC2)(C(F)(F)F)O1 [Efavirenz]
- remaining activity at 1.25 µM ([1]; Well no.=2248): 97.1%
- remaining activity at 3.75 µM ([2]; Well no.=2248): 101%

SMILES: NCCCC(N)(C(=O)O)C(F)F (stereo not drawn) [Eflornithine hydrochloride hydrate]
- remaining activity at 1.25 µM ([1]; Well no.=8636): 104%
- remaining activity at 3.75 µM ([2]; Well no.=8636): 95.7%

SMILES: CCCCCCCCCCC/C=C\C/C=C\CCCC(=O)O [Eicosa-5,8-dienoic acid (20:2 n-12)]
- remaining activity at 1.25 µM ([1]; Well no.=4309): 102%
- remaining activity at 3.75 µM ([2]; Well no.=4309): 106%

SMILES: CCCCCCCCCCCCCCCCCCCC(=O)O [Eicosanoic acid]
- remaining activity at 1.25 µM ([1]; Well no.=4400): 94.6%
- remaining activity at 3.75 µM ([2]; Well no.=4400): 93.4%

SMILES: CC/C=C\C/C=C\C/C=C\C/C=C\C/C=C\CCCC(=O)O [Eicosapentaenoic acid]
- remaining activity at 1.25 µM ([1]; Well no.=4251): 103%
- remaining activity at 1.25 µM ([1]; Well no.=4448): 92.3%
- remaining activity at 1.25 µM ([1]; Well no.=7315): 108%
- remaining activity at 3.75 µM ([2]; Well no.=4251): 101%
- remaining activity at 3.75 µM ([2]; Well no.=4448): 96.1%
- remaining activity at 3.75 µM ([2]; Well no.=7315): 103%

SMILES: CCCCCCCC/C=C/CCCCCCCC(=O)OC[C@H]1O[C@@H](n2ccc(N)nc2=O)[C@@H](O)[C@@H]1O [Elacytarabine]
- remaining activity at 1.25 µM ([1]; Well no.=7716): 105%
- remaining activity at 3.75 µM ([2]; Well no.=7716): 110%

SMILES: CSc1ccc(C(=O)/C=C/c2cc(C)c(OC(C)(C)C(=O)O)c(C)c2)cc1 [Elafibranor]
- remaining activity at 1.25 µM ([1]; Well no.=8106): 96.6%
- remaining activity at 3.75 µM ([2]; Well no.=8106): 95.3%

SMILES: COc1cccc(-c2c(C)n(Cc3c(F)cccc3C(F)(F)F)c(=O)n(C[C@H](NCCCC(=O)O)c3ccccc3)c2=O)c1F [Elagolix]
- remaining activity at 1.25 µM ([1]; Well no.=7420): 97.8%
- remaining activity at 3.75 µM ([2]; Well no.=7420): 94.7%

SMILES: CCCCCCCC/C=C/CCCCCCCC(=O)O [Elaidic acid]
- remaining activity at 1.25 µM ([1]; Well no.=7259): 96%
- remaining activity at 3.75 µM ([2]; Well no.=7259): 87.3%
